Experimental data from ChEMBL document CHEMBL4837181 (Eur J Med Chem, 2020).

Key:
[1] = Change in normalised Cmax in rat at 10 mg/kg, po measured upto 72 hrs by LC-MS/MS analysis; format: ADME, organism-based; details: in vivo
[2] = Chemical stability of compound in simulated intestinal fluid assessed as compound remaining at 5 uM measured after 24 hrs by LC-MS/MS analysis; format: ADME, physicochemical; details: read-out: Stabilty
[3] = Chemical stability of compound in simulated intestinal fluid assessed as compound remaining at 5 uM measured after 3 hrs by LC-MS/MS analysis; format: ADME, physicochemical; details: read-out: Stabilty
[4] = Chemical stability of compound in simulated gastric fluid assessed as compound remaining at 5 uM measured after 1.5 hrs by LC-MS/MS analysis; format: ADME, physicochemical; details: read-out: Stabilty
[5] = Stability in human plasma assessed as parent compound remaining measured after 24 hrs by LC-MS/MS analysis; format: ADME, cell-free; details: read-out: Stabilty
[6] = Chemical stability of compound in saline assessed as compound remaining at 5 uM measured after 24 hrs by LC-MS/MS analysis; format: physicochemical; details: read-out: Stabilty
[7] = Stability in rat plasma assessed as parent compound remaining measured after 2 hrs by LC-MS/MS analysis; format: ADME, cell-free; details: read-out: Stabilty
[8] = Dose normalized AUC (0 to infinity) in rat at 10 mg/kg, po measured upto 72 hrs by LC-MS/MS analysis; format: ADME, organism-based; details: in vivo
[9] = Chemical stability of compound in simulated gastric fluid assessed as compound remaining at 5 uM measured after 24 hrs by LC-MS/MS analysis; format: ADME, physicochemical; details: read-out: Stabilty
[10] = Change in normalised AUCinfinity in rat at 10 mg/kg, po measured upto 72 hrs by LC-MS/MS analysis; format: ADME, organism-based; details: in vivo
[11] = Dose normalized Cmax in rat at 10 mg/kg, po measured upto 72 hrs by LC-MS/MS analysis; format: ADME, organism-based; details: in vivo
[12] = Chemical stability of compound in PBS buffer assessed as compound remaining at pH 7.4 at 5 uM measured after 24 hrs by LC-MS/MS analysis; format: physicochemical; details: read-out: Stabilty
[13] = Chemical stability of compound in 0.1 N aqueous HCl buffer assessed as compound remaining at pH 1 at 5 uM measured after 1.5 hrs by LC-MS/MS analysis; format: physicochemical; details: pH 1, 1.5 h
[14] = Stability in mouse plasma assessed as parent compound remaining measured after 2 hrs by LC-MS/MS analysis; format: ADME, cell-free; details: read-out: Stabilty
[15] = Chemical stability of compound in PBS buffer assessed as compound remaining at pH 7.4 at 5 uM measured after 6 hrs by LC-MS/MS analysis; format: physicochemical; details: read-out: Stabilty
[16] = Stability in human plasma assessed as parent compound remaining measured after 6 hrs by LC-MS/MS analysis; format: ADME, cell-free; details: read-out: Stabilty
[17] = Chemical stability of compound in 0.1 N aqueous HCl buffer assessed as compound remaining at pH 1 at 5 uM measured after 24 hrs by LC-MS/MS analysis; format: physicochemical; details: pH 1, 24 h

Compound	Activity [1] [%]	remaining at 24 h, 5 µM [2] [%]	remaining at 3 h, 5 µM [3] [%]	remaining at 1.5 h, 5 µM [4] [%]	remaining at 24 h [5] [%]	remaining at 24 h, 5 µM [6] [%]	remaining at 2 h [7] [%]	AUC/dose [8] [µM·h]	remaining at 24 h, 5 µM [9] [%]	Activity [10] [%]	Cmax/dose [11] [µM]	remaining at 24 h, 5 µM [12] [%]	Stabilty [13] [%]	remaining at 2 h [14] [%]	remaining at 6 h, 5 µM [15] [%]	remaining at 6 h [16] [%]	Stabilty [17] [%]
CC(C)C[C@H](N)C(=O)N[C@H](Cc1cn(C)c2ccccc12)C(=O)O.Cl	41	0	66	95	82	99	100	617	97	21	24.4	95	92	88	95	87	99
Cl.Cn1cc(C[C@@H](NC(=O)[C@H](N)Cc2c[nH]c3ccccc23)C(=O)O)c2ccccc21	-82	51	53	51	32	87	79	182	48	-64	3.2	45	53	82	81	77	87
CN(C)CCOC(=O)[C@H](N)Cc1cn(C)c2ccccc12.Cl	128	0	0	2	2	47	0	731	2	44	39.5	0	3	0	0	10	47
Cl.Cn1cc(C[C@@H](N)C(=O)N[C@H](Cc2cn(C)c3ccccc23)C(=O)O)c2ccccc21	-83	77	81	63	82	91	80	262	49	-48	3	34	45	65	100	92	91
Cl.Cn1cc(C[C@@H](NC(=O)[C@@H](N)CCC(N)=O)C(=O)O)c2ccccc21	-51	0	53	83	83	78	100	372	83	-27	8.5	74	65	49	100	93	78
CCOC(=O)[C@@H](Cc1cn(C)c2ccccc12)NC(=O)[C@@H](N)Cc1ccccc1.Cl	-54	0	65	89	11	90	0	329	86	-35	7.9	96	99	0	96	68	90
Cl.Cn1cc(C[C@@H](NC(=O)[C@@H](N)Cc2c[nH]c3ccccc23)C(=O)O)c2ccccc21	-31	69	88	81	94	61	76	415	73	-18	12	33	52	90	55	97	61
Cl.Cn1cc(C[C@@H](N)C(=O)OCCC2CCOCC2)c2ccccc21	-14	0	67	85	54	76	0	774	60	52	15	0	52	0	85	85	76
CC(C)[C@H](N)C(=O)N[C@H](Cc1cn(C)c2ccccc12)C(=O)O.Cl	-18	76	78	55	47	99	9	338	50	-33	14.2	44	98	57	91	79	99
Cl.Cn1cc(C[C@@H](NC(=O)[C@@H](N)Cc2ccccc2)C(=O)O)c2ccccc21	-31	0	91	79	75	92	19	425	80	-16	11.9	92	96	66	89	87	92
